Drawing on ChEMBL document CHEMBL5370534, “Discovery of novel triazine derivatives as potent retinoic acid receptor-related orphan receptor γt (RORγt) inverse agonists” (Eur J Med Chem, 2023), this text covers IC50, half-life and inhibition in vivo for 18 compounds.

A value given as a limit tells only on which side of the number the result lay.

The target in data set [1] is T1, Nuclear receptor ROR-gamma (Homo sapiens, UniProt P51449).
T1 sequence (P51449 whole entry): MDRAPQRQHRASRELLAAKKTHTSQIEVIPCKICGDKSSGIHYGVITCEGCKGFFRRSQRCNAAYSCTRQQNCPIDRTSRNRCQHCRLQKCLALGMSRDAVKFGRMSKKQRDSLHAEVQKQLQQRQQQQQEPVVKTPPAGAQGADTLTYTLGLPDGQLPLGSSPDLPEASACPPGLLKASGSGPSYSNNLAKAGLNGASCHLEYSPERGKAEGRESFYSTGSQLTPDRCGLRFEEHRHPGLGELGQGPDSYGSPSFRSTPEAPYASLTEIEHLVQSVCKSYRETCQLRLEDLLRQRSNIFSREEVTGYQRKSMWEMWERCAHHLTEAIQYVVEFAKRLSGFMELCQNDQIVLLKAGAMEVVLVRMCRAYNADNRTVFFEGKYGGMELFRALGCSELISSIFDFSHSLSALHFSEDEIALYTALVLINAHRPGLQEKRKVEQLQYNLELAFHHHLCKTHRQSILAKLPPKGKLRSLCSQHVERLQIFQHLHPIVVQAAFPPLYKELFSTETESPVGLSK

Data set [2] can be described thus: Half life in mouse liver microsomes at 1 mM in presence of NADPH by HPLC-MS/MS analysis. The arrangement: dose or concentration left out as unconfirmed.
The target in data set [3] is T1, Nuclear receptor ROR-gamma. The source holds these as a separate data set.
The test system of the next data set is Mus musculus. The data set is described as follows: Antiinflammatory activity against imiquimod-induced psoriasis BALB/c mouse model assessed as reduction in psoriasis symptoms at 0.4 mg/kg, po qd for 7 days. As to conditions: 168 h, read-out: INH.

The IC50 is the concentration that inhibits the measured activity by half. As to `CC(C)(C)c1ccc(-c2nc(Nc3ccc(C(=O)O)cc3)nc(Oc3c(Cl)cccc3Cl)n2)cc1`, the IC50 in data set [1] turned out to be 99.5 nM.

As for `COc1ccc(-c2nc(Nc3ccc(C(N)=O)cc3)nc(Oc3c(Cl)cccc3Cl)n2)cc1`, the IC50 in data set [1] was 13.3 nM.

`O=C(O)c1ccc(Nc2nc(Oc3c(Cl)cccc3Cl)nc(C3CCCC3)n2)cc1` had an IC50 in data set [1] of 3420 nM.

Turning to `CNS(=O)(=O)c1ccc(Nc2nc(Oc3c(Cl)cccc3Cl)nc(-c3ccc(OC)cc3)n2)cc1`, the IC50 in data set [1] worked out at 32.5 nM.

What is called half-life is how long it takes for the measured level to halve. `O=C(O)c1ccc(Nc2nc(Oc3c(Cl)cccc3Cl)nc(-c3ccc(C(F)(F)F)cc3)n2)cc1`: in data set [2], the half-life was above 145 min. Further, the IC50 stood at 1620 nM in data set [3] and 68.6 nM in data set [1].

Compound `CNC(=O)c1ccc(Nc2nc(Oc3c(Cl)cccc3Cl)nc(-c3ccc(OC)cc3)n2)cc1` yielded an IC50 in data set [1] of 12.9 nM.

`COc1ccc(-c2nc(Nc3ccc(C(=O)O)c(O)c3)nc(Oc3c(Cl)cccc3Cl)n2)cc1` yielded an IC50 in data set [1] of 83 nM.

Regarding `COc1ccc(-c2nc(Nc3ccc(C(C)C(=O)O)cc3)nc(Oc3c(Cl)cccc3Cl)n2)cc1` (stereo unspecified), half-maximal inhibition in data set [1] (IC50) required 99.5 nM.

With `COc1ccc(-c2nc(Nc3cccc(C(=O)O)c3)nc(Oc3c(Cl)cccc3Cl)n2)cc1`, in data set [1], the IC50 was determined as 91 nM.

With `O=C(O)c1ccc(Nc2nc(Oc3c(Cl)cccc3Cl)nc(-c3ccc(F)cc3)n2)cc1`, in data set [1], 152 nM corresponded to half-maximal inhibition (IC50).

In turn, `CNC(=O)c1ccc(Nc2nc(Oc3c(Cl)cccc3Cl)nc(-c3ccc(C(F)(F)F)cc3)n2)cc1` displayed an IC50 in data set [1] of 22.5 nM.

Compound `O=C(O)c1ccc(Nc2nc(Oc3c(Cl)cccc3Cl)nc(C3CCCCC3)n2)cc1` showed an IC50 in data set [1] of 596 nM.

In turn, `COc1ccc(-c2nc(NC3CCC(C(=O)O)C3)nc(Oc3c(Cl)cccc3Cl)n2)cc1` (stereo unspecified) registered an IC50 in data set [1] of 822 nM.

For `Cc1ccc(-c2nc(Nc3ccc(C(=O)O)cc3)nc(Oc3c(Cl)cccc3Cl)n2)cc1`, the IC50 in data set [1] is 61.7 nM.

In the case of `Cc1cccc(-c2nc(Nc3ccc(C(=O)O)cc3)nc(Oc3c(Cl)cccc3Cl)n2)c1`, 241 nM corresponded to half-maximal inhibition in data set [1] (IC50).

`CNC(=O)c1ccc(Nc2nc(Oc3c(Cl)cccc3C(F)(F)F)nc(-c3ccc(OC)cc3)n2)cc1` had an IC50 in data set [1] of 16.7 nM.

For `CN(Cc1cnc2nc(N)nc(N)c2n1)c1ccc(C(=O)N[C@@H](CCC(=O)O)C(=O)O)cc1` [METHOTREXATE], the inhibition in vivo at 0.4 mg/kg with Mus musculus was 53.1%.

`CC(=O)Nc1ccc(Nc2nc(Oc3c(Cl)cccc3C(F)(F)F)nc(-c3ccc(C(F)(F)F)cc3)n2)cc1`: in data set [2], the half-life came out at 17.8 min. In data set [1], this compound gave a 50% inhibitory concentration (IC50) of 32 nM.
